In brackets after ≈: the same amount, converted by molar mass.
Experiments:
[1] = tested on: Candida albicans; experiment: Antifungal activity against Candida albicans clinical isolate after 24 hrs by broth microdilution method; assay type: functional
[2] = tested on: Candida parapsilosis; experiment: Antifungal activity against Candida parapsilosis clinical isolate after 24 hrs by broth microdilution method; assay type: functional; settings: Lodderomyces parapsilosis
[3] = tested on: Candida tropicalis; experiment: Antifungal activity against Candida tropicalis clinical isolate after 24 hrs by broth microdilution method; assay type: functional
[4] = tested on: Pichia kudriavzevii; experiment: Antifungal activity against Candida krusei clinical isolate after 24 hrs by broth microdilution method; assay type: functional
[5] = tested on: Enterobacter sp.; experiment: Antibacterial activity against Enterobacter spp. clinical isolate after 18 to 22 hrs by broth microdilution method; assay type: functional
[6] = tested on: Staphylococcus aureus; experiment: Antibacterial activity against Staphylococcus aureus clinical isolate after 18 to 22 hrs by broth microdilution method; assay type: functional
[7] = tested on: [Candida] sake; experiment: Antifungal activity against Candida sake clinical isolate after 24 hrs by broth microdilution method; assay type: functional; settings: Fermentozyma sake
[8] = tested on: Proteus mirabilis; experiment: Antibacterial activity against Proteus mirabilis clinical isolate after 18 to 22 hrs by broth microdilution method; assay type: functional
[9] = tested on: Klebsiella oxytoca; experiment: Antibacterial activity against Klebsiella oxytoca clinical isolate after 18 to 22 hrs by broth microdilution method; assay type: functional
[10] = tested on: Escherichia coli; experiment: Antibacterial activity against Escherichia coli after clinical isolate 18 to 22 hrs by broth microdilution method; assay type: functional
[11] = tested on: Nakaseomyces glabratus; experiment: Antifungal activity against Candida glabrata clinical isolate after 24 hrs by broth microdilution method; assay type: functional
[12] = tested on: Enterococcus faecalis; experiment: Antibacterial activity against Streptococcus faecalis clinical isolate after 18 to 22 hrs by broth microdilution method; assay type: functional
[13] = tested on: Staphylococcus warneri; experiment: Antibacterial activity against Staphylococcus warneri clinical isolate after 18 to 22 hrs by broth microdilution method; assay type: functional
[14] = tested on: Streptococcus sp. (viridans group); experiment: Antibacterial activity against Streptococcus alpha-hemolyticus clinical isolate after 18 to 22 hrs by broth microdilution method
[15] = Cytotoxicity against human Hep2 cells assessed as cell survival at 5 ug/ml after 24 hrs by trypan blue exclusion assay; assay type: cell-based, HEp-2; settings: read-out: Survival
[16] = Antioxidant activity of the compound after 30 mins by CUPRAC method; assay type: physicochemical
[17] = Cytotoxicity against human Hep2 cells assessed as cell survival at 10 ug/ml after 24 hrs by trypan blue exclusion assay; assay type: cell-based, HEp-2; settings: read-out: Survival
[18] = Metal chelating activity of the compound assessed as ferrous ion complex formation after 10 mins; assay type: physicochemical
[19] = Antioxidant activity assessed as ABTS radical scavenging activity after 30 mins under dark conditions; assay type: physicochemical
[20] = Cytotoxicity against human Hep2 cells assessed as cell survival at 0.5 ug/ml after 24 hrs by trypan blue exclusion assay; assay type: cell-based, HEp-2; settings: read-out: Survival
[21] = Antioxidant activity of the compound after 30 mins by FRAP assay; assay type: physicochemical
[22] = Antioxidant activity assessed as DPPH radical scavenging activity after 30 mins under dark conditions; assay type: physicochemical
[23] = Cytotoxicity against human Hep2 cells assessed as cell survival at 50 ug/ml after 24 hrs by trypan blue exclusion assay; assay type: cell-based, HEp-2; settings: read-out: Survival
[24] = Cytotoxicity against human Hep2 cells assessed as reduction in cell viability after 24 hrs by trypan blue exclusion assay; assay type: cell-based, HEp-2
[25] = Antioxidant activity of the compound after 90 mins by phosphomolybdenum assay; assay type: physicochemical
[26] = Cytotoxicity against human Hep2 cells assessed as cell survival at 0.05 ug/ml after 24 hrs by trypan blue exclusion assay; assay type: cell-based, HEp-2; settings: read-out: Survival

C/C(=N/N=C1\SCC(=O)N1Cc1ccc(Cl)cc1)c1cccs1
MIC [1]: 4 µg/mL (≈ 11 µM)
MIC [2]: 4 µg/mL (≈ 11 µM)
MIC [3]: 8 µg/mL (≈ 22 µM)
MIC [4]: 8 µg/mL (≈ 22 µM)
MIC [5]: > 256 µg/mL
MIC [6]: > 256 µg/mL
MIC [7]: 8 µg/mL (≈ 22 µM)
MIC [8]: > 256 µg/mL
MIC [9]: > 256 µg/mL
MIC [10]: > 256 µg/mL
MIC [11]: 2 µg/mL (≈ 5.5 µM)
MIC [12]: > 256 µg/mL
MIC [13]: > 256 µg/mL
MIC [14]: > 256 µg/mL

C/C(=N\N=C1/SCC(=O)N1Cc1cccc(Cl)c1)c1ccccn1
MIC [1]: 2 µg/mL (≈ 5.57 µM)
MIC [2]: 2 µg/mL (≈ 5.57 µM)
MIC [3]: 2 µg/mL (≈ 5.57 µM)
viability at 24 h, 5 ug/ml [15]: 85%
MIC [4]: 4 µg/mL (≈ 11.1 µM)
EC50 [16]: 1400 µM
MIC [5]: > 256 µg/mL
viability at 24 h, 10 ug/ml [17]: 69%
MIC [6]: > 256 µg/mL
IC50 [18]: 2760 µM
MIC [7]: 16 µg/mL (≈ 44.6 µM)
IC50 [19]: 26800 µM
MIC [8]: > 256 µg/mL
viability at 24 h, 0.5 ug/ml [20]: 87.5%
EC50 [21]: 4930 µM
MIC [9]: > 256 µg/mL
IC50 [22]: > 5000 µM
MIC [10]: > 256 µg/mL
MIC [11]: 2 µg/mL (≈ 5.57 µM)
viability at 24 h, 50 ug/ml [23]: 0%
MIC [12]: > 256 µg/mL
MIC [13]: > 256 µg/mL
CC50 at 24 h [24]: 21 µg/mL (≈ 58.5 µM)
EC50 [25]: 2040 µM
viability at 24 h, 0.05 ug/ml [26]: 94%
MIC [14]: > 256 µg/mL

C/C(=N/N=C1\SCC(=O)N1Cc1ccc(Cl)cc1)c1ccccn1
MIC [1]: 8 µg/mL (≈ 22.3 µM)
MIC [2]: 4 µg/mL (≈ 11.1 µM)
MIC [3]: 8 µg/mL (≈ 22.3 µM)
MIC [4]: 8 µg/mL (≈ 22.3 µM)
MIC [5]: > 256 µg/mL
MIC [6]: > 256 µg/mL
MIC [7]: 8 µg/mL (≈ 22.3 µM)
MIC [8]: > 256 µg/mL
MIC [9]: > 256 µg/mL
MIC [10]: > 256 µg/mL
MIC [11]: 4 µg/mL (≈ 11.1 µM)
MIC [12]: > 256 µg/mL
MIC [13]: > 256 µg/mL
MIC [14]: > 256 µg/mL

Nc1ccc(CN2C(=O)CS/C2=N\N=C2CCCC2)cc1
MIC [1]: 2 µg/mL (≈ 6.61 µM)
MIC [2]: 64 µg/mL (≈ 212 µM)
MIC [3]: 32 µg/mL (≈ 106 µM)
MIC [4]: 16 µg/mL (≈ 52.9 µM)
MIC [5]: > 256 µg/mL
MIC [6]: > 256 µg/mL
MIC [7]: 256 µg/mL (≈ 847 µM)
MIC [8]: > 256 µg/mL
MIC [9]: > 256 µg/mL
MIC [10]: > 256 µg/mL
MIC [11]: 16 µg/mL (≈ 52.9 µM)
MIC [12]: > 256 µg/mL
MIC [13]: > 256 µg/mL
MIC [14]: > 256 µg/mL

CC(C)=N/N=C1\SCC(=O)N1Cc1ccc(N)cc1
MIC [1]: 4 µg/mL (≈ 14.5 µM)
MIC [2]: 2 µg/mL (≈ 7.24 µM)
MIC [3]: 32 µg/mL (≈ 116 µM)
MIC [4]: 2 µg/mL (≈ 7.24 µM)
EC50 [16]: 1770 µM
MIC [5]: > 256 µg/mL
MIC [6]: > 256 µg/mL
IC50 [18]: > 5000 µM
MIC [7]: 4 µg/mL (≈ 14.5 µM)
IC50 [19]: 2040 µM
MIC [8]: > 256 µg/mL
EC50 [21]: 2760 µM
MIC [9]: > 256 µg/mL
IC50 [22]: > 5000 µM
MIC [10]: > 256 µg/mL
MIC [11]: 1 µg/mL (≈ 3.62 µM)
MIC [12]: > 256 µg/mL
MIC [13]: > 256 µg/mL
EC50 [25]: 1200 µM
MIC [14]: > 256 µg/mL

C/C(=N/N=C1\SCC(=O)N1Cc1ccc(N)cc1)c1cccs1
MIC [1]: 4 µg/mL (≈ 11.6 µM)
MIC [2]: 8 µg/mL (≈ 23.2 µM)
MIC [3]: 2 µg/mL (≈ 5.81 µM)
MIC [4]: 8 µg/mL (≈ 23.2 µM)
MIC [5]: > 256 µg/mL
MIC [6]: > 256 µg/mL
MIC [7]: 2 µg/mL (≈ 5.81 µM)
MIC [8]: > 256 µg/mL
MIC [9]: > 256 µg/mL
MIC [10]: > 256 µg/mL
MIC [11]: 8 µg/mL (≈ 23.2 µM)
MIC [12]: > 256 µg/mL
MIC [13]: > 256 µg/mL
MIC [14]: > 256 µg/mL

C/C(=N/N=C1\SCC(=O)N1Cc1ccc(N)cc1)c1ccccn1
MIC [1]: 2 µg/mL (≈ 5.89 µM)
MIC [2]: 8 µg/mL (≈ 23.6 µM)
MIC [3]: 2 µg/mL (≈ 5.89 µM)
MIC [4]: 8 µg/mL (≈ 23.6 µM)
MIC [5]: > 256 µg/mL
MIC [6]: > 256 µg/mL
MIC [7]: 2 µg/mL (≈ 5.89 µM)
MIC [8]: > 256 µg/mL
MIC [9]: > 256 µg/mL
MIC [10]: > 256 µg/mL
MIC [11]: 8 µg/mL (≈ 23.6 µM)
MIC [12]: > 256 µg/mL
MIC [13]: > 256 µg/mL
MIC [14]: > 256 µg/mL

O=C1CS/C(=N\N=C2CCCC2)N1Cc1ccccc1[N+](=O)[O-]
MIC [1]: 4 µg/mL (≈ 12 µM)
MIC [2]: 16 µg/mL (≈ 48.1 µM)
MIC [3]: 8 µg/mL (≈ 24.1 µM)
MIC [4]: 4 µg/mL (≈ 12 µM)
MIC [5]: > 256 µg/mL
MIC [6]: > 256 µg/mL
MIC [7]: 4 µg/mL (≈ 12 µM)
MIC [8]: > 256 µg/mL
MIC [9]: > 256 µg/mL
MIC [10]: > 256 µg/mL
MIC [11]: 2 µg/mL (≈ 6.02 µM)
MIC [12]: > 256 µg/mL
MIC [13]: > 256 µg/mL
MIC [14]: > 256 µg/mL

CC(C)=N/N=C1\SCC(=O)N1Cc1ccccc1[N+](=O)[O-]
MIC [1]: 2 µg/mL (≈ 6.53 µM)
MIC [2]: 16 µg/mL (≈ 52.2 µM)
MIC [3]: 8 µg/mL (≈ 26.1 µM)
MIC [4]: 2 µg/mL (≈ 6.53 µM)
MIC [5]: > 256 µg/mL
MIC [6]: > 256 µg/mL
MIC [7]: 4 µg/mL (≈ 13.1 µM)
MIC [8]: > 256 µg/mL
MIC [9]: > 256 µg/mL
MIC [10]: > 256 µg/mL
MIC [11]: 4 µg/mL (≈ 13.1 µM)
MIC [12]: > 256 µg/mL
MIC [13]: > 256 µg/mL
MIC [14]: > 256 µg/mL

Clc1ccccc1C(c1ccccc1)(c1ccccc1)n1ccnc1 [CLOTRIMAZOLE]
MIC [1]: 2 µg/mL (≈ 5.8 µM)
MIC [2]: 2 µg/mL (≈ 5.8 µM)
MIC [3]: 2 µg/mL (≈ 5.8 µM)
MIC [4]: 2 µg/mL (≈ 5.8 µM)
MIC [7]: 2 µg/mL (≈ 5.8 µM)
MIC [11]: 2 µg/mL (≈ 5.8 µM)
viability at 24 h, 50 ug/ml [23]: 10.2%
CC50 at 24 h [24]: 18 µg/mL (≈ 52.2 µM)

O=C(O)CN(CCN(CC(=O)O)CC(=O)O)CC(=O)O [EDETIC ACID]
IC50 [18]: 20 µM

Cc1c(C)c2c(c(C)c1O)CCC(C)(C(=O)O)O2 (stereo not drawn) [TROLOX]
EC50 [16]: 240 µM
IC50 [19]: 660 µM
EC50 [21]: 160 µM
IC50 [22]: 400 µM
EC50 [25]: 1130 µM
